For 13 molecules, efflux ratio and IC50 results are on record in US20250197428A1, “INHIBITORS OF KIF18A AND USES THEREOF” (ACCENT THERAPEUTICS, INC., priority 2022, published 2025).

The efflux ratio is the permeability from basolateral to apical divided by that in the opposite direction, in the common usage.

Like-named read-outs stand apart in the source and are kept apart here. Where only a bound is given, the exact number is not on record here.

Series [1] in a line: Caco-2 permeation assay, bidirectional permeability. The format is in vitro ADME. The conditions noted are these: human, Caco-2, pH 7.4, 5 μM, Papp(B-A)/Papp(A-B). As for the experimental part: 1. Caco-2 Permeation Assay: Evaluation of the Bidirectional Permeabilities of Compounds.
Samples were analyzed through LC/MS/MS for estimating the apparent permeability coefficients (Papp) of compounds across Caco-2 cell monolayers. Caco-2 cells (American Type Culture Collection) were incubated and seeded onto HTS Transwell-96 Well Permeable Supports (Corning Corporation) for 14 days using a cell medium consisting of Dulbecco's Modified Eagle's Medium (DMEM) with high glucose and L-glutamine supplemented with 10% FBS, 1× penicillin-streptomycin mixture and 1×non-essential amino acids (NEAA). Cell monolayer integrity was measured using an automated tissue resistance measuring system (World Precision Instruments). Stock solutions of compounds and control compounds in DMSO were diluted with HBSS (10 mM HEPES, pH 7.4) to reach a final concentration of 5 μM with a final concentration of DMSO <0.1%. HBSS was then removed after 30 minutes of preincubation, and 75 μL of test compound was added to the apical compartment of the Transwell insert. The basolateral compartment was filled with 235 μL of HBSS (10 mM HEPES, pH 7.4) containing 2% BSA. Rate of drug transport in the basolateral to apical direction was obtained by adding 235 μL of test compound to the receiver plate wells (basolateral compartment) and filling with 75 μL of HBSS (10 mM HEPES, pH 7.4) containing 2% BSA. Time 0 samples were prepared by transferring 25 μL of 5 μM working solution to wells of the 96-deepwell plate containing 25 μL HBSS (10 mM HEPES and 2% BSA, pH 7.4), followed by the addition 200 μL of cold methanol containing appropriate internal standards (100 nM alprazolam, 200 nM labetalol, 200 nM caffeine and 200 nM diclofenac). After incubating at 37° C. for 2 h, 25 μL samples from donor sides (apical compartment) were transferred to a 96-well plate containing 25 μL HBSS (10 mM HEPES and 2% BSA, pH 7.4). 25 μL samples from receiver sides (basolateral compartment) were removed and transferred to a new plate containing 25 μL HBSS (10 mM HEPES, pH 7.4). 200 μL of cold methanol containing internal standards (100 nM alprazolam, 200 nM labetalol, 200 nM caffeine and 200 nM diclofenac) was added to terminate the reaction. Samples were vortexed for 5 minutes and then centrifuged at 3,220 g for 40 minutes. An aliquot of 100 μL of the supernatant is mixed with 100 μL of ultra-pure water for LC-MS/MS analysis. All incubations are performed in duplicate. Solutions were discarded from the transwell plate. 100 μL Lucifer Yellow solution (100 μM in HBSS) was added to each well of transwell insert and 300 μL of HBSS to each well of receiver. After incubating at 37° C. for 30 minutes, 80 μL was aliquotted from each well of apical and basolateral sides to a solid black plate. The plate was then read with Tecan Infinite™ M 200 (Excitation/Emission wavelength […]).
All calculations were carried out using Microsoft Excel. Peak areas were determined from extracted ion chromatograms. The leakage of Lucifer Yellow, in unit of percentage (%), can be calculated using the following equation: […]
LY leakage of <1% is acceptable to indicate the well-qualified Caco-2 monolayers. The apparent permeability coefficient (Papp), in units of centimeter per second, can be calculated for Caco-2 drug transport assays using the following equation: […]
Where VA is the volume (in mL) in the receiver well (0.235 mL for Ap→Bl flux and 0.075 mL for Bl→Ap flux), Area is the surface area of the membrane (0.143 cm^2 for HTS Transwell-96 Well Permeable Supports), and time is the total transport time in seconds. The efflux ratio can be determined using the following equation: […]
Where Papp (B-A) indicates the apparent permeability coefficient in basolateral to apical direction, and Papp (A-B) indicates the apparent permeability coefficient in apical to basolateral direction.
The recovery can be determined using the following equation: […]

The next series concerns OVCAR-3 cells. In words: In vitro anti-proliferative activity assay in cancer cell line OVCAR-3 (CellTiter-Glo, 4- or 7-day). It is filed as cell-based. The conditions noted are these: Homo sapiens, read-out: OVCAR-3 cellular antiproliferation assay IC50. In general terms: Cellular ATP, detected with luciferase, serves as a proxy for viable cell number.
The target in the next series is KIF18A (Homo sapiens (Human), UniProt Q8NI77). In words: KIF18A Biochemical Assay (ATPase, ADP-Glo). A general note: ADP-Glo turns the ADP formed in a reaction into a luminescent signal.
Chain of KIF18A (Q8NI77 1-367): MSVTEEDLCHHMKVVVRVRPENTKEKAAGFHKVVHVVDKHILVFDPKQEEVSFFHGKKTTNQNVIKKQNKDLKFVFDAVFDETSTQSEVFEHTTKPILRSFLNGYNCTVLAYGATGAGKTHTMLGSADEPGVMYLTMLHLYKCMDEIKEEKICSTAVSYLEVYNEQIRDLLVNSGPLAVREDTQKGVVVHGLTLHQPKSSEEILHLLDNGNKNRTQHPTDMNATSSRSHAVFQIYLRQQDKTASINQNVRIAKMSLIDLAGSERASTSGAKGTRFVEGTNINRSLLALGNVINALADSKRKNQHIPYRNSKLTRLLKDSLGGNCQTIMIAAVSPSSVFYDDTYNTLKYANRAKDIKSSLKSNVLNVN
Chain of KIF18A (P02550 whole entry partner): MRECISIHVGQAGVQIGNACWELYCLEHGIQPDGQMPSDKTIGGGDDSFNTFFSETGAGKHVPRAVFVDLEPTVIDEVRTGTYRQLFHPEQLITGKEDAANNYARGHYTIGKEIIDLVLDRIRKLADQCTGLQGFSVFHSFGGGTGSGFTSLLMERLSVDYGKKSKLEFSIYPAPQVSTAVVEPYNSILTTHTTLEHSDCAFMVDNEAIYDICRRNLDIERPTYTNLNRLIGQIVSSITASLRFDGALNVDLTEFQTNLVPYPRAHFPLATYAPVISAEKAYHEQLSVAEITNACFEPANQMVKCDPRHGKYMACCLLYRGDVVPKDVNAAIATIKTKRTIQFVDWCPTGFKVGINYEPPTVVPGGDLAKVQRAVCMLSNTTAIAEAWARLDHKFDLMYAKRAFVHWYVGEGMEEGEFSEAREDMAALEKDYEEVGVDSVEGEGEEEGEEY
Chain of KIF18A (P02554 whole entry partner): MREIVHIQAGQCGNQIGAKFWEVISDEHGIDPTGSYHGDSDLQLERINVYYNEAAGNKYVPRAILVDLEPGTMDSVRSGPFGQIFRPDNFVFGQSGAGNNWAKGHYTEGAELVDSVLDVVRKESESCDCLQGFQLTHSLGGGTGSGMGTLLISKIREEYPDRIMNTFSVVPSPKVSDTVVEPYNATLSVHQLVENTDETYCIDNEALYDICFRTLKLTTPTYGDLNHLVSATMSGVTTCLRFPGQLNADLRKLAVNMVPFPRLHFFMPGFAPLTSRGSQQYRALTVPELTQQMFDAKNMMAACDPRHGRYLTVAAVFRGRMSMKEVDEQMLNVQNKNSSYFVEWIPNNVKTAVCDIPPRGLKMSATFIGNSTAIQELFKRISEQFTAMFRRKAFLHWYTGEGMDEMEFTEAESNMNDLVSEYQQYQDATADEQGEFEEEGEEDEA

As to `Cc1cc(NC(=O)c2ccc(NS(=O)(=O)CCO)cc2N2CC[Si](C)(C)CC2)nc(N2CCOCC2)c1` [Example 5, 2-(4,4-dimethyl-1,4-azasilinan-1-yl)-4-((2-hydroxyethyl)sulfonamido)-N-(4-methyl-6-morpholinopyridin-2-yl)benzamide], in series [1], the efflux ratio at 2 h, 5 μM is less than 10. Also, the IC50 was less than 0.1 µM in the series on OVCAR-3 cells (OVCAR-3, 96 h, 4-day assay) and less than 0.1 µM at KIF18A.

On to `C[Si]1(C)CCN(c2cc(NS(=O)(=O)CCO)ccc2NC(=O)c2ccnc(OCCC(F)(F)F)n2)CC1` [Example 88], for which the efflux ratio at 2 h, 5 μM in series [1] was less than 10. In addition, the IC50 was 0.5 to 1 µM in the series on OVCAR-3 cells (OVCAR-3, 168 h, 7-day assay) and 0.1 to 0.5 µM on KIF18A.

In the case of `C[Si]1(C)CCN(c2cc(NS(=O)(=O)CCO)ccc2C(=O)Nc2cccc(N3CCC(F)(F)CC3)c2)CC1` [Example 6, N-(3-(4,4-difluoropiperidin-1-yl)phenyl)-2-(4,4-dimethyl-1,4-azasilinan-1-yl)-4-((2-hydroxyethyl)sulfonamido)benzamide], in series [1], the efflux ratio at 2 h, 5 μM was less than 10. The IC50 in the series on OVCAR-3 cells (OVCAR-3, 96 h, 4-day assay) was less than 0.1 µM; at KIF18A, less than 0.1 µM.

Regarding `Cc1cc(NC(=O)c2ccc(NS(=O)(=O)CCO)cc2N2CC[Si](C)(C)CC2)nc(N2CCOC3(CC3)C2)n1` [Example 102], the efflux ratio at 2 h, 5 μM in series [1] was no less than 10. In addition, the IC50 was less than 0.1 µM with OVCAR-3 cells (OVCAR-3, 168 h, 7-day assay) and less than 0.1 µM against KIF18A.

For `Cc1cc(NC(=O)c2ccc(NS(=O)(=O)CCO)cc2N2CCC3(C)C(C2)C3(F)F)nc(N2CCC(F)(F)CC2)n1` (stereo not drawn) [Example 28, 2-(7,7-difluoro-6-methyl-3-azabicyclo[4.1.0]heptan-3-yl)-N-(2-(4,4-difluoropiperidin-1-yl)-6-methylpyrimidin-4-yl)-4-((2-hydroxyethyl)sulfonamido)benzamide], the efflux ratio at 2 h, 5 μM in series [1] is less than 10. Also, the IC50 with OVCAR-3 cells (OVCAR-3, 96 h, 4-day assay) is 0.1 to 0.5 µM; against KIF18A it was less than 0.1 µM.

`C[Si]1(C)CCN(c2cc(NS(=O)(=O)CCO)ccc2C(=O)Nc2cccc(OC[C@@H](O)C(F)(F)F)n2)CC1` [Example 121]: the efflux ratio at 2 h, 5 μM in series [1] was less than 10. For the same molecule, the IC50 in the series on OVCAR-3 cells (OVCAR-3, 168 h, 7-day assay) is less than 0.1 µM; at KIF18A, less than 0.1 µM.

Consider `C[Si]1(C)CCN(c2cc(NS(=O)(=O)CCO)ccc2C(=O)Nc2ccnc(N3CCC(F)(F)CC3)c2)CC1` [Example 7, N-(2-(4,4-difluoropiperidin-1-yl)pyridin-4-yl)-2-(4,4-dimethyl-1,4-azasilinan-1-yl)-4-((2-hydroxyethyl)sulfonamido)benzamide], for which, in series [1], the efflux ratio at 2 h, 5 μM was no less than 10. Moreover, the IC50 in the series with OVCAR-3 cells (OVCAR-3, 96 h, 4-day assay) was less than 0.1 µM; against KIF18A it was less than 0.1 µM.

As to `CC(CO)S(=O)(=O)Nc1ccc(C(=O)Nc2cccc(OCCC(F)(F)F)n2)c(N2CC[Si](C)(C)CC2)c1` (stereo not drawn) [Example 113], the efflux ratio at 2 h, 5 μM in series [1] was less than 10. Besides, the IC50 in the series on OVCAR-3 cells (OVCAR-3, 168 h, 7-day assay) was 0.1 to 0.5 µM; against KIF18A, less than 0.1 µM.

With `CC(=O)NCCS(=O)(=O)Nc1ccc(C(=O)Nc2cccc(N3CCC(F)(F)CC3)n2)c(N2CC[Si](C)(C)CC2)c1` [Example 104], the efflux ratio at 2 h, 5 μM in series [1] is less than 10. Also, the IC50 was 0.1 to 0.5 µM in the series with OVCAR-3 cells (OVCAR-3, 168 h, 7-day assay) and less than 0.1 µM against KIF18A.

With `Cc1cc(NC(=O)c2ccc(NS(=O)(=O)CCO)cc2N2CCC3CC3C2)nc(N2CCC(F)(F)CC2)n1` (stereo not drawn) [Example 34], in series [1], the efflux ratio at 2 h, 5 μM is no less than 10. The IC50 was 0.1 to 0.5 µM in the series on OVCAR-3 cells (OVCAR-3, 96 h, 4-day assay) and less than 0.1 µM on KIF18A.

On to `C[Si]1(C)CCN(c2cc(NS(=O)(=O)CCN)ccc2C(=O)Nc2cccc(N3CCC(F)(F)CC3)n2)CC1` [Example 100], for which the efflux ratio at 2 h, 5 μM in series [1] was less than 10. For the same molecule, the IC50 was 0.1 to 0.5 µM with OVCAR-3 cells (OVCAR-3, 168 h, 7-day assay) and less than 0.1 µM at KIF18A.

Regarding `C[Si]1(C)CCN(c2cc(S(=N)(=O)C3CC3)ccc2C(=O)Nc2cccc(N3CCC(F)(F)CC3)n2)CC1` (stereo not drawn) [Example 120], the efflux ratio at 2 h, 5 μM in series [1] is less than 10. For the same molecule, the IC50 was less than 0.1 µM in the series with OVCAR-3 cells (OVCAR-3, 168 h, 7-day assay) and less than 0.1 µM at KIF18A.

`Cc1cc(NC(=O)c2ccc(NS(=O)(=O)[C@H](C)CO)cc2N2CC[Si](C)(C)CC2)nc(N2CCC(F)(F)CC2)n1` [Example 111]: the efflux ratio at 2 h, 5 μM in series [1] was no less than 10. Further, the IC50 with OVCAR-3 cells (OVCAR-3, 168 h, 7-day assay) was less than 0.1 µM; at KIF18A it was less than 0.1 µM.
